In PubChem BioAssay (NCI):
“And” between values parts separate entries of the source, which are not always exact repeats. Identical values can stand only once.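 Briefly, cells in 96-well plates were exposed to five compound concentrations for 48 h, and endpoints were estimated by linear interpolation. GI50 is the concentration that inhibits growth by half. TGI: concentration producing complete growth inhibition.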

Tests used:
Experiment in all cases: NCI anticancer screen, dose series, 48 h
[1] = tested on: COLO 205 colon
[2] = tested on: SK-OV-3 ovarian
[3] = tested on: HOP-62 NSCLC
[4] = tested on: SK-MEL-5 melanoma
[5] = tested on: SF-268 CNS
[6] = tested on: SF-295 CNS
[7] = tested on: NCI/ADR-RES ovarian
[8] = tested on: OVCAR-4 ovarian
[9] = tested on: UO-31 renal
[10] = tested on: A498 renal

Row | Structure (SMILES) | TGI [1] | TGI [2] | TGI [3] | TGI [4] | TGI [5] | TGI [6] | GI50 [2] | GI50 [3] | GI50 [7] | TGI [7] | GI50 [4] | GI50 [8] | TGI [8] | GI50 [9] | TGI [9] | GI50 [5] | GI50 [6] | GI50 [10] | TGI [10] | GI50 [1]
1 | CCC12CCCN(Cc3ccccc3)C1c1c(n(C)c3ccccc13)CC2 (configuration not stated) | > 253 µM | > 253 µM | > 253 µM | 184 µM | > 253 µM | > 253 µM |  |  |  |  |  |  |  |  |  |  |  |  |  | 
2 | NC(N)=N/N=C/c1c(-c2ccsc2)nc2sccn12 |  | 30.3 µM | 27.4 µM | 28.8 µM | 29.4 µM | 23.6 µM | 14.3 µM | 14.3 µM | 16.9 µM | 32.7 µM | 14.4 µM | 13.6 µM | 27.1 µM | 20 µM | 36.8 µM | 15.3 µM | 11.4 µM | 17.5 µM | 31.8 µM | 
3 | C#CCOc1cccc(-c2ncc3cc(NC(=O)CCl)ccc3n2)c1 |  | > 100 µM | 3.81 µM | 2.62 µM | 5.25 µM | 17 µM | 3.58 µM | 2.02 µM | 3.07 µM | > 100 µM | 1.33 µM |  |  | 1.52 µM | 2.91 µM | 2.03 µM | 3.65 µM | 13.2 µM | 31 µM | 
4 | COC(=O)C[C@](O)(CCCC(C)(C)O)C(=O)O[C@@H]1C(OC)=C[C@]23CCCN2CCc2cc4c(cc2[C@H]13)OCO4 |  | 1.82 µM and 0.395 µM | 0.366 µM and 0.265 µM |  | 0.99 µM and 0.446 µM |  | 0.0284 µM | 0.0363 µM | 0.934 µM | 14.6 µM | 0.0149 µM | 0.0221 µM | 1.15 µM and 0.149 µM | 0.181 µM | 2.01 µM and 3.13 µM | 0.046 µM | 0.0237 µM | 0.0173 µM | 0.146 µM and 0.0396 µM | 0.0283 µM
5 | CNCc1ccccc1-c1csc([C@@H](C)Nc2nc(C)nc3cc(OC)c(OC)cc23)c1 | 3.59 µM | 18.8 µM | 12.3 µM | 3.09 µM | 12.4 µM | 2.88 µM | 4.67 µM | 1.43 µM | 2.01 µM | 4.68 µM | 1.72 µM | 2.4 µM | 10.7 µM | 1.23 µM | 2.48 µM | 2.66 µM | 1.45 µM | 0.289 µM | 1.92 µM | 1.77 µM
6 | CC/C=C\C[C@H](O)C/C=C1/C(=O)C(Cl)=C[C@@H]1C/C=C\CCCC(=O)OC | 1.69 µM | 16.5 µM | 2.25 µM | 1.77 µM | 2.34 µM | 5.83 µM | 4.72 µM | 0.53 µM | 0.581 µM | 9.14 µM | 0.489 µM | 0.723 µM | 3.21 µM | 0.413 µM | 1.29 µM | 0.505 µM | 2.4 µM | 3.65 µM | 10.2 µM | 0.55 µM
7 | N.N.N.N.O=C([O-])CCl.O=C([O-])CCl.[Co+3].[O-][Cl+3]([O-])([O-])[O-] | > 100 µM | > 100 µM | > 100 µM | > 100 µM | > 100 µM | > 100 µM | > 100 µM | > 100 µM |  |  | > 100 µM | > 100 µM | > 100 µM | > 100 µM | > 100 µM | > 100 µM | > 100 µM | > 100 µM | > 100 µM | > 100 µM
8 | CCN(CC)CCCN1CCc2c([nH]c3ccccc23)C1c1cccnc1 (configuration not stated) | > 100 µM | > 100 µM | > 100 µM | > 100 µM |  | > 100 µM |  |  |  |  |  |  | > 100 µM |  | > 100 µM |  |  |  | > 100 µM | 
9 | OC(CC1SCCCS1)c1ccccc1 (configuration not stated) | > 100 µM | > 100 µM | > 100 µM | > 100 µM | > 100 µM | > 100 µM |  |  |  |  |  |  | > 100 µM |  | > 100 µM |  |  |  | > 100 µM | 
10 | Cc1ccc(S(=O)(=O)Nc2ccccc2C=O)cc1 | 33.2 µM | 94.8 µM | 85 µM | 25.1 µM |  | 85.6 µM |  |  |  | 59 µM |  |  | > 100 µM |  | 26.8 µM |  |  |  | 92.2 µM | 
11 | CC(=O)N=C1N(/C=C2\C(=O)Oc3ccccc3C2=O)C(=O)/C(=C/c2cccc(Cl)c2Cl)N1C | 74 µM | 39.4 µM | 54.4 µM | 32.2 µM | > 100 µM | > 100 µM |  |  |  | 62 µM |  |  |  |  |  |  |  |  | 21.1 µM | 
12 | CSc1nc(=O)n(CCC#N)nc1SC | 52.8 µM | > 100 µM | > 100 µM | 43 µM | 53.1 µM | > 100 µM |  |  |  | > 100 µM |  |  |  |  | > 100 µM |  |  |  | > 100 µM | 
13 | CC1(C)COC(C2(C)C(=O)C=C(c3ccccc3)c3ccccc32)=N1 (configuration not stated) | > 100 µM | 47.9 µM | > 100 µM | > 100 µM | > 100 µM | > 100 µM |  |  |  |  |  |  | > 100 µM |  | 98.6 µM |  |  |  |  | 
14 | COc1ccc(C2SC(N)=Nc3c2c(C)nn3C(=O)c2ccncc2)cc1OC (configuration not stated) | > 10 µM | > 10 µM | > 10 µM | > 10 µM | > 10 µM | > 10 µM |  |  |  | > 10 µM |  |  | > 10 µM |  |  |  |  |  |  | 
15 | COc1ccc2occ(CCC(=O)O)c2c1 | > 100 µM | > 100 µM | > 100 µM | > 100 µM |  | > 100 µM |  |  |  |  |  |  | > 100 µM |  |  |  |  |  | > 100 µM | 
16 | O=C(CCN(C(=O)O)S(=O)(=O)c1ccc(NC(=O)c2ccccc2)cc1)Nc1ccccc1 | > 80.2 µM | > 100 µM | > 100 µM | > 100 µM | > 100 µM | > 100 µM |  |  |  |  |  |  | > 100 µM |  | > 100 µM |  |  |  | > 100 µM | 
17 | CO/N=C(/C)c1cccc(Nc2cc(-n3nnc4ccccc43)nc3ccccc23)c1 | > 100 µM | > 100 µM | 53.6 µM | 32.5 µM | > 100 µM | 64.1 µM | > 100 µM | 19.6 µM | 61.9 µM | > 100 µM | 14.4 µM | 65.6 µM | > 100 µM | > 100 µM | > 100 µM | 30.5 µM | 15 µM |  |  | > 100 µM
18 | C/C=C/C(CC(O)(C(F)(F)F)C(F)(F)F)=N/NC(N)=S | > 10 µM | > 10 µM | > 10 µM | > 10 µM | > 10 µM | > 10 µM |  |  |  | > 10 µM |  |  | > 10 µM |  |  |  |  |  | > 10 µM | 
